Converted amounts (≈) assume the structure as drawn. The source made the active and inactive calls. The calls are words filed in the database; no cut-off is given here.
What was measured:
Format in all cases: functional
Staphylococcus aureus [1] = test: Antimicrobial activity against methicillin-resistant Staphylococcus aureus 217/7 by twofold dilution technique
Staphylococcus aureus [2] = test: Antimicrobial activity against methicillin-resistant Staphylococcus aureus 218/7 by twofold dilution technique
Enterococcus hirae [3] = test: Antimicrobial activity against Enterococcus hirae ATCC 10541 after 18 hrs by twofold dilution technique; conditions: ATCC 10541, 18 h
Bacillus subtilis [4] = test: Antimicrobial activity against Bacillus subtilis ATCC 6633 after 18 hrs by twofold dilution technique; conditions: ATCC 6633, 18 h
Micrococcus luteus [5] = test: Antimicrobial activity against Micrococcus luteus ATCC 9341 after 18 hrs by twofold dilution technique; conditions: ATCC 9341, 18 h
Staphylococcus aureus [6] = test: Antimicrobial activity against methicillin-resistant Staphylococcus aureus 136/6 by twofold dilution technique
Bacillus cereus [7] = test: Antimicrobial activity against Bacillus cereus ATCC 11778 at 400 ug after 18 hrs by disk diffusion method; conditions: ATCC 11778, 18 h, read-out: DIZ
Staphylococcus aureus [8] = test: Antimicrobial activity against methicillin-resistant Staphylococcus aureus 236/7 by twofold dilution technique
Staphylococcus aureus [9] = test: Antimicrobial activity against Staphylococcus aureus NCTC 4163 at 400 ug after 18 hrs by disk diffusion method; conditions: NCTC 4163, 18 h, read-out: DIZ
Staphylococcus aureus [10] = test: Antimicrobial activity against Methicillin susceptible Staphylococcus aureus 208/7 by twofold dilution technique
Bacillus subtilis [11] = test: Antimicrobial activity against Bacillus subtilis ATCC 6633 at 400 ug after 18 hrs by disk diffusion method; conditions: ATCC 6633, 18 h, read-out: DIZ
Staphylococcus aureus [12] = test: Antimicrobial activity against Methicillin susceptible Staphylococcus aureus 238/7 by twofold dilution technique
Staphylococcus aureus [13] = test: Antimicrobial activity against Methicillin susceptible Staphylococcus aureus 207/7 by twofold dilution technique
[14] = tested on: Staphylococcus epidermidis; test: Antimicrobial activity against Staphylococcus epidermidis ATCC 12228 by twofold dilution technique
Staphylococcus aureus [15] = test: Antimicrobial activity against methicillin-resistant Staphylococcus aureus 200/7 by twofold dilution technique
Staphylococcus aureus [16] = test: Antimicrobial activity against Staphylococcus aureus ATCC 6538 at 400 ug after 18 hrs by disk diffusion method; conditions: ATCC 6538, 18 h, read-out: DIZ
Staphylococcus aureus [17] = test: Antimicrobial activity against methicillin-resistant Staphylococcus aureus 140/6 by twofold dilution technique
Staphylococcus aureus [18] = test: Antimicrobial activity against Methicillin susceptible Staphylococcus aureus 243/7 by twofold dilution technique
Staphylococcus aureus [19] = test: Antimicrobial activity against Staphylococcus aureus NCTC 4163 after 18 hrs by twofold dilution technique; conditions: NCTC 4163, 18 h
Staphylococcus aureus [20] = test: Antimicrobial activity against Staphylococcus aureus ATCC 25923 at 400 ug after 18 hrs by disk diffusion method; conditions: ATCC 25923, 18 h, read-out: DIZ
Staphylococcus aureus [21] = test: Antimicrobial activity against Methicillin susceptible Staphylococcus aureus 239/7 by twofold dilution technique
Staphylococcus aureus [22] = test: Antimicrobial activity against methicillin-resistant Staphylococcus aureus 146/6 by twofold dilution technique
Staphylococcus aureus [23] = test: Antimicrobial activity against Methicillin susceptible Staphylococcus aureus 213/7 by twofold dilution technique
Enterococcus hirae [24] = test: Antimicrobial activity against Enterococcus hirae ATCC 10541 at 400 ug after 18 hrs by disk diffusion method; conditions: for zone of inhibition at 400 µg/disc: ATCC 10541, 18 h, read-out: DIZ
Staphylococcus aureus [25] = test: Antimicrobial activity against Methicillin susceptible Staphylococcus aureus 212/7 by twofold dilution technique
Staphylococcus aureus [26] = test: Antimicrobial activity against Methicillin susceptible Staphylococcus aureus 206/7 by twofold dilution technique
Bacillus cereus [27] = test: Antimicrobial activity against Bacillus cereus ATCC 11778 after 18 hrs by twofold dilution technique; conditions: ATCC 11778, 18 h
Staphylococcus aureus [28] = test: Antimicrobial activity against Methicillin susceptible Staphylococcus aureus 237/7 by twofold dilution technique
Staphylococcus aureus [29] = test: Antimicrobial activity against Methicillin susceptible Staphylococcus aureus 242/7 by twofold dilution technique
Staphylococcus aureus [30] = test: Antimicrobial activity against Staphylococcus aureus ATCC 29213 after 18 hrs by twofold dilution technique; conditions: ATCC 29213, 18 h
[31] = tested on: Staphylococcus epidermidis; test: Antimicrobial activity against Staphylococcus epidermidis ATCC 12228 at 400 ug after 18 hrs by disk diffusion method; conditions: ATCC 12228, 18 h, read-out: DIZ
Micrococcus luteus [32] = test: Antimicrobial activity against Micrococcus luteus ATCC 9341 at 400 ug after 18 hrs by disk diffusion method; conditions: for zone of inhibition at 400 µg/disc: ATCC 9341, 18 h, read-out: DIZ
Staphylococcus aureus [33] = test: Antimicrobial activity against methicillin-resistant Staphylococcus aureus 144/6 by twofold dilution technique
Micrococcus luteus [34] = test: Antimicrobial activity against Micrococcus luteus ATCC 10240 by twofold dilution technique
Staphylococcus aureus [35] = test: Antimicrobial activity against Staphylococcus aureus ATCC 29213 at 400 ug after 18 hrs by disk diffusion method; conditions: ATCC 29213, 18 h, read-out: DIZ
Staphylococcus aureus [36] = test: Antimicrobial activity against Staphylococcus aureus ATCC 25923 after 18 hrs by twofold dilution technique; conditions: ATCC 25923, 18 h
Micrococcus luteus [37] = test: Antimicrobial activity against Micrococcus luteus ATCC 10240 at 400 ug after 18 hrs by disk diffusion method; conditions: ATCC 10240, 18 h, read-out: DIZ
Staphylococcus aureus [38] = test: Antimicrobial activity against Staphylococcus aureus ATCC 6538 after 18 hrs by twofold dilution technique; conditions: ATCC 6538, 18 h
Staphylococcus aureus [39] = test: Antimicrobial activity against methicillin-resistant Staphylococcus aureus 143/6 by twofold dilution technique
Staphylococcus aureus [40] = test: Antimicrobial activity against methicillin-resistant Staphylococcus aureus 141/6 by twofold dilution technique

Row | Compound | MIC (Staphylococcus aureus [1]) [µg/mL] | MIC (Staphylococcus aureus [2]) [µg/mL] | MIC (Enterococcus hirae [3]) [µg/mL] | MIC (Bacillus subtilis [4]) [µg/mL] | MIC (Micrococcus luteus [5]) [µg/mL] | MIC (Staphylococcus aureus [6]) [µg/mL] | zone of inhibition at 400 µg/disc (Bacillus cereus [7]) [mm] | MIC (Staphylococcus aureus [8]) [µg/mL] | zone of inhibition at 400 µg/disc (Staphylococcus aureus [9]) [mm] | MIC (Staphylococcus aureus [10]) [µg/mL] | zone of inhibition at 400 µg/disc (Bacillus subtilis [11]) [mm] | MIC (Staphylococcus aureus [12]) [µg/mL] | MIC (Staphylococcus aureus [13]) [µg/mL] | MIC [14] [µg/mL] | MIC (Staphylococcus aureus [15]) [µg/mL] | zone of inhibition at 400 µg/disc (Staphylococcus aureus [16]) [mm] | MIC (Staphylococcus aureus [17]) [µg/mL] | MIC (Staphylococcus aureus [18]) [µg/mL] | MIC (Staphylococcus aureus [19]) [µg/mL] | zone of inhibition at 400 µg/disc (Staphylococcus aureus [20]) [mm] | other results
1 | Cc1cc2c(c(O)c1-c1c(C)cc3c(c1O)/C(=C/N)C(=O)C(O)=C3C(C)C)/C(=C/N)C(=O)C(O)=C2C(C)C | 200 (≈ 387 µM) | 100 (≈ 194 µM) | 100 (≈ 194 µM) | 100 (≈ 194 µM) | 100 (≈ 194 µM) | 100 (≈ 194 µM) | 11 | 100 (≈ 194 µM) | 15 | 100 (≈ 194 µM) | 11 | 100 (≈ 194 µM) | 200 (≈ 387 µM) | > 400 | 100 (≈ 194 µM) | 14 | 100 (≈ 194 µM) | 100 (≈ 194 µM) | 100 (≈ 194 µM) | 13 | MIC (Staphylococcus aureus [21]): 100 µg/mL (≈ 194 µM); MIC (Staphylococcus aureus [22]): 100 µg/mL (≈ 194 µM); MIC (Staphylococcus aureus [23]): 100 µg/mL (≈ 194 µM); diameter of the inhibition zone (DIZ) (Enterococcus hirae [24]): inactive; MIC (Staphylococcus aureus [25]): 200 µg/mL (≈ 387 µM); MIC (Staphylococcus aureus [26]): 100 µg/mL (≈ 194 µM); MIC (Bacillus cereus [27]): 50 µg/mL (≈ 96.8 µM); MIC (Staphylococcus aureus [28]): 100 µg/mL (≈ 194 µM); MIC (Staphylococcus aureus [29]): 50 µg/mL (≈ 96.8 µM); MIC (Staphylococcus aureus [30]): 50 µg/mL (≈ 96.8 µM); zone of inhibition at 400 µg/disc [31]: 12 mm; zone of inhibition at 400 µg/disc (Micrococcus luteus [32]): 11 mm; MIC (Staphylococcus aureus [33]): 100 µg/mL (≈ 194 µM); MIC (Micrococcus luteus [34]): 100 µg/mL (≈ 194 µM); zone of inhibition at 400 µg/disc (Staphylococcus aureus [35]): 13 mm; MIC (Staphylococcus aureus [36]): 100 µg/mL (≈ 194 µM); zone of inhibition at 400 µg/disc (Micrococcus luteus [37]): 14 mm; MIC (Staphylococcus aureus [38]): 50 µg/mL (≈ 96.8 µM); MIC (Staphylococcus aureus [39]): 100 µg/mL (≈ 194 µM); MIC (Staphylococcus aureus [40]): 100 µg/mL (≈ 194 µM)
2 | COc1ccc2[nH]cc(CCN/C=C3\C(=O)C(O)=C(C(C)C)c4cc(C)c(-c5c(C)cc6c(c5O)/C(=C/NCCc5c[nH]c7ccc(OC)cc57)C(=O)C(O)=C6C(C)C)c(O)c43)c2c1 | 200 (≈ 232 µM) | 100 (≈ 116 µM) | 100 (≈ 116 µM) | 200 (≈ 232 µM) | 100 (≈ 116 µM) | 100 (≈ 116 µM) | 15 | 100 (≈ 116 µM) | 16 | 100 (≈ 116 µM) | 15 | 100 (≈ 116 µM) | 200 (≈ 232 µM) | 200 (≈ 232 µM) | 100 (≈ 116 µM) | 16 | 100 (≈ 116 µM) | 100 (≈ 116 µM) | 100 (≈ 116 µM) | 15 | MIC (Staphylococcus aureus [21]): 100 µg/mL (≈ 116 µM); MIC (Staphylococcus aureus [22]): 100 µg/mL (≈ 116 µM); MIC (Staphylococcus aureus [23]): 100 µg/mL (≈ 116 µM); zone of inhibition at 400 µg/disc (Enterococcus hirae [24]): 14 mm; MIC (Staphylococcus aureus [25]): 100 µg/mL (≈ 116 µM); MIC (Staphylococcus aureus [26]): 100 µg/mL (≈ 116 µM); MIC (Bacillus cereus [27]): 100 µg/mL (≈ 116 µM); MIC (Staphylococcus aureus [28]): 100 µg/mL (≈ 116 µM); MIC (Staphylococcus aureus [29]): 50 µg/mL (≈ 57.9 µM); MIC (Staphylococcus aureus [30]): 50 µg/mL (≈ 57.9 µM); zone of inhibition at 400 µg/disc [31]: 15 mm; zone of inhibition at 400 µg/disc (Micrococcus luteus [32]): 11 mm; MIC (Staphylococcus aureus [33]): 200 µg/mL (≈ 232 µM); MIC (Micrococcus luteus [34]): 100 µg/mL (≈ 116 µM); zone of inhibition at 400 µg/disc (Staphylococcus aureus [35]): 15 mm; MIC (Staphylococcus aureus [36]): 100 µg/mL (≈ 116 µM); zone of inhibition at 400 µg/disc (Micrococcus luteus [37]): 15 mm; MIC (Staphylococcus aureus [38]): 50 µg/mL (≈ 57.9 µM); MIC (Staphylococcus aureus [39]): 100 µg/mL (≈ 116 µM); MIC (Staphylococcus aureus [40]): 100 µg/mL (≈ 116 µM)
3 | COCCN/N=C/c1c(O)c(O)c(C(C)C)c2cc(C)c(-c3c(C)cc4c(C(C)C)c(O)c(O)c(/C=N/NCCOC)c4c3O)c(O)c12 | 100 (≈ 151 µM) | 100 (≈ 151 µM) | 100 (≈ 151 µM) | 400 (≈ 604 µM) | 50 (≈ 75.4 µM) | 100 (≈ 151 µM) | 13 | 100 (≈ 151 µM) | 14 | 50 (≈ 75.4 µM) | 13 | 50 (≈ 75.4 µM) | 50 (≈ 75.4 µM) | 400 (≈ 604 µM) | 50 (≈ 75.4 µM) | 13 | 50 (≈ 75.4 µM) | 100 (≈ 151 µM) | 100 (≈ 151 µM) | 15 | MIC (Staphylococcus aureus [21]): 100 µg/mL (≈ 151 µM); MIC (Staphylococcus aureus [22]): 100 µg/mL (≈ 151 µM); MIC (Staphylococcus aureus [23]): 50 µg/mL (≈ 75.4 µM); zone of inhibition at 400 µg/disc (Enterococcus hirae [24]): 11 mm; MIC (Staphylococcus aureus [25]): 100 µg/mL (≈ 151 µM); MIC (Staphylococcus aureus [26]): 50 µg/mL (≈ 75.4 µM); MIC (Bacillus cereus [27]): 50 µg/mL (≈ 75.4 µM); MIC (Staphylococcus aureus [28]): 100 µg/mL (≈ 151 µM); MIC (Staphylococcus aureus [29]): 50 µg/mL (≈ 75.4 µM); MIC (Staphylococcus aureus [30]): 50 µg/mL (≈ 75.4 µM); zone of inhibition at 400 µg/disc [31]: 15 mm; diameter of the inhibition zone (DIZ) (Micrococcus luteus [32]): inactive; MIC (Staphylococcus aureus [33]): 100 µg/mL (≈ 151 µM); MIC (Micrococcus luteus [34]): 100 µg/mL (≈ 151 µM); zone of inhibition at 400 µg/disc (Staphylococcus aureus [35]): 14 mm; MIC (Staphylococcus aureus [36]): 50 µg/mL (≈ 75.4 µM); zone of inhibition at 400 µg/disc (Micrococcus luteus [37]): 14 mm; MIC (Staphylococcus aureus [38]): 50 µg/mL (≈ 75.4 µM); MIC (Staphylococcus aureus [39]): 50 µg/mL (≈ 75.4 µM); MIC (Staphylococcus aureus [40]): 100 µg/mL (≈ 151 µM)

— ChEMBL document CHEMBL1155271, “Synthesis, crystal structures and antibacterial activity studies of aza-derivatives of phytoalexin from cotton plant--gossypol” (2009)
